Results from ChEMBL document CHEMBL4261593, “Synthesis and antibacterial activity of novel 3-O-arylalkylcarbamoyl-3-O-descladinosyl-9-O-(2-chlorobenzyl)oxime clarithromycin derivatives” (2018).
≈ marks a conversion by molar mass, not a printed value.

Tests used:
Assay type in all cases: functional
Staphylococcus aureus [1] = assay: Antibacterial activity against erythromycin-susceptible Staphylococcus aureus ATCC 25923 after 24 hrs by broth dilution assay; settings: ATCC 25923, 24 h
Streptococcus pyogenes [2] = assay: Antibacterial activity against erythromycin-susceptible Streptococcus pyogenes 1 after 24 hrs by broth dilution assay; settings: Streptococcus pyogenes, 1, 24 h
Staphylococcus aureus [3] = assay: Antibacterial activity against penicillin-resistant Staphylococcus aureus ATCC 31007 after 24 hrs by broth dilution assay; settings: ATCC 31007, 24 h
Streptococcus pneumoniae [4] = assay: Antibacterial activity against erythromycin-resistant Streptococcus pneumoniae A22072 expressing mefA gene after 24 hrs by broth dilution assay; settings: A22072, 24 h
Bacillus subtilis = assay: Antibacterial activity against penicillin-susceptible Bacillus subtilis ATCC 9372 after 24 hrs by broth dilution assay; settings: ATCC 9372, 24 h
Streptococcus pyogenes [5] = assay: Antibacterial activity against erythromycin-resistant Streptococcus pyogenes 2 after 24 hrs by broth dilution assay; settings: Streptococcus pyogenes, 2, 24 h
Escherichia coli = assay: Antibacterial activity against penicillin-susceptible Escherichia coli ATCC 25922 after 24 hrs by broth dilution assay; settings: ATCC 25922, 24 h
Staphylococcus aureus [6] = assay: Antibacterial activity against […] Staphylococcus aureus ATCC 29213 after 24 hrs by broth dilution assay; settings: ATCC 29213, 24 h
Streptococcus pneumoniae [7] = assay: Antibacterial activity against erythromycin-resistant Streptococcus pneumoniae AB11 expressing ermB and mefA genes after 24 hrs by broth dilution assay; settings: AB11, 24 h
Pseudomonas aeruginosa = assay: Antibacterial activity against penicillin-susceptible Pseudomonas aeruginosa ATCC 27853 after 24 hrs by broth dilution assay; settings: ATCC 27853, 24 h
Streptococcus pneumoniae [8] = assay: Antibacterial activity against erythromycin-resistant Streptococcus pneumoniae B1 expressing ermB gene after 24 hrs by broth dilution assay; settings: B1, 24 h

SMILES	MIC (Staphylococcus aureus [1])	MIC (Streptococcus pyogenes [2])	MIC (Staphylococcus aureus [3])	MIC (Streptococcus pneumoniae [4])	MIC (Bacillus subtilis)	MIC (Streptococcus pyogenes [5])	MIC (Escherichia coli)	MIC (Staphylococcus aureus [6])	MIC (Streptococcus pneumoniae [7])	MIC (Pseudomonas aeruginosa)	MIC (Streptococcus pneumoniae [8])
CC[C@H]1OC(=O)[C@H](C)[C@@H](O)[C@H](C)[C@@H](O[C@@H]2O[C@H](C)C[C@H](N(C)C)[C@H]2O)[C@](C)(OC)C[C@@H](C)/C(=N/OCc2ccccc2Cl)[C@H](C)[C@@H](O)[C@]1(C)O	64 µg/mL (≈ 87.7 µM)	4 µg/mL (≈ 5.48 µM)	32 µg/mL (≈ 43.9 µM)	4 µg/mL (≈ 5.48 µM)	16 µg/mL (≈ 21.9 µM)	128 µg/mL (≈ 175 µM)	128 µg/mL (≈ 175 µM)	128 µg/mL (≈ 175 µM)	128 µg/mL (≈ 175 µM)	128 µg/mL (≈ 175 µM)	128 µg/mL (≈ 175 µM)
CC[C@H]1OC(=O)[C@H](C)[C@@H](OC(=O)NCC(C)C)[C@H](C)[C@@H](O[C@@H]2O[C@H](C)C[C@H](N(C)C)[C@H]2O)[C@](C)(OC)C[C@@H](C)/C(=N/OCc2ccccc2Cl)[C@H](C)[C@@H](O)[C@]1(C)O	8 µg/mL (≈ 9.66 µM)	1 µg/mL (≈ 1.21 µM)	8 µg/mL (≈ 9.66 µM)	1 µg/mL (≈ 1.21 µM)	2 µg/mL (≈ 2.41 µM)	16 µg/mL (≈ 19.3 µM)	128 µg/mL (≈ 154 µM)	128 µg/mL (≈ 154 µM)	128 µg/mL (≈ 154 µM)	128 µg/mL (≈ 154 µM)	128 µg/mL (≈ 154 µM)
CC[C@H]1OC(=O)[C@H](C)[C@@H](OC(=O)NCCc2ccc(OC)c(OC)c2)[C@H](C)[C@@H](O[C@@H]2O[C@H](C)C[C@H](N(C)C)[C@H]2O)[C@](C)(OC)C[C@@H](C)/C(=N/OCc2ccccc2Cl)[C@H](C)[C@@H](O)[C@]1(C)O	8 µg/mL (≈ 8.54 µM)	1 µg/mL (≈ 1.07 µM)	8 µg/mL (≈ 8.54 µM)	1 µg/mL (≈ 1.07 µM)	4 µg/mL (≈ 4.27 µM)	16 µg/mL (≈ 17.1 µM)	128 µg/mL (≈ 137 µM)	128 µg/mL (≈ 137 µM)	128 µg/mL (≈ 137 µM)	128 µg/mL (≈ 137 µM)	128 µg/mL (≈ 137 µM)
CC[C@H]1OC(=O)[C@H](C)[C@@H](O[C@H]2C[C@@](C)(OC)[C@@H](O)[C@H](C)O2)[C@H](C)[C@@H](O[C@@H]2O[C@H](C)C[C@H](N(C)C)[C@H]2O)[C@](C)(OC)C[C@@H](C)C(=O)[C@H](C)[C@@H](O)[C@]1(C)O [CLARITHROMYCIN]	0.25 µg/mL (≈ 0.334 µM)	0.03 µg/mL (≈ 0.0401 µM)	256 µg/mL (≈ 342 µM)	2 µg/mL (≈ 2.67 µM)	0.25 µg/mL (≈ 0.334 µM)	256 µg/mL (≈ 342 µM)	32 µg/mL (≈ 42.8 µM)	64 µg/mL (≈ 85.6 µM)	128 µg/mL (≈ 171 µM)	32 µg/mL (≈ 42.8 µM)	128 µg/mL (≈ 171 µM)
CC[C@H]1OC(=O)[C@H](C)[C@@H](OC(=O)NCc2ccc(OC)cc2)[C@H](C)[C@@H](O[C@@H]2O[C@H](C)C[C@H](N(C)C)[C@H]2O)[C@](C)(OC)C[C@@H](C)/C(=N/OCc2ccccc2Cl)[C@H](C)[C@@H](O)[C@]1(C)O	16 µg/mL (≈ 17.9 µM)	4 µg/mL (≈ 4.48 µM)	8 µg/mL (≈ 8.96 µM)	2 µg/mL (≈ 2.24 µM)	4 µg/mL (≈ 4.48 µM)	16 µg/mL (≈ 17.9 µM)	128 µg/mL (≈ 143 µM)	128 µg/mL (≈ 143 µM)	128 µg/mL (≈ 143 µM)	128 µg/mL (≈ 143 µM)	128 µg/mL (≈ 143 µM)
CC[C@H]1OC(=O)[C@H](C)[C@@H](OC(=O)NC2CCCC2)[C@H](C)[C@@H](O[C@@H]2O[C@H](C)C[C@H](N(C)C)[C@H]2O)[C@](C)(OC)C[C@@H](C)/C(=N/OCc2ccccc2Cl)[C@H](C)[C@@H](O)[C@]1(C)O	16 µg/mL (≈ 19 µM)	2 µg/mL (≈ 2.38 µM)	8 µg/mL (≈ 9.52 µM)	0.5 µg/mL (≈ 0.595 µM)	4 µg/mL (≈ 4.76 µM)	16 µg/mL (≈ 19 µM)	128 µg/mL (≈ 152 µM)	128 µg/mL (≈ 152 µM)	128 µg/mL (≈ 152 µM)	128 µg/mL (≈ 152 µM)	128 µg/mL (≈ 152 µM)
CC[C@H]1OC(=O)[C@H](C)[C@@H](OC(=O)NCc2ccccc2OC)[C@H](C)[C@@H](O[C@@H]2O[C@H](C)C[C@H](N(C)C)[C@H]2O)[C@](C)(OC)C[C@@H](C)/C(=N/OCc2ccccc2Cl)[C@H](C)[C@@H](O)[C@]1(C)O	16 µg/mL (≈ 17.9 µM)	4 µg/mL (≈ 4.48 µM)	4 µg/mL (≈ 4.48 µM)	1 µg/mL (≈ 1.12 µM)	4 µg/mL (≈ 4.48 µM)	16 µg/mL (≈ 17.9 µM)	128 µg/mL (≈ 143 µM)	128 µg/mL (≈ 143 µM)	128 µg/mL (≈ 143 µM)	128 µg/mL (≈ 143 µM)	128 µg/mL (≈ 143 µM)
CC[C@H]1OC(=O)[C@H](C)[C@@H](OC(=O)NCc2ccco2)[C@H](C)[C@@H](O[C@@H]2O[C@H](C)C[C@H](N(C)C)[C@H]2O)[C@](C)(OC)C[C@@H](C)/C(=N/OCc2ccccc2Cl)[C@H](C)[C@@H](O)[C@]1(C)O	16 µg/mL (≈ 18.8 µM)	4 µg/mL (≈ 4.69 µM)	8 µg/mL (≈ 9.38 µM)	1 µg/mL (≈ 1.17 µM)	4 µg/mL (≈ 4.69 µM)	16 µg/mL (≈ 18.8 µM)	128 µg/mL (≈ 150 µM)	128 µg/mL (≈ 150 µM)	128 µg/mL (≈ 150 µM)	128 µg/mL (≈ 150 µM)	128 µg/mL (≈ 150 µM)
C#CCNC(=O)O[C@H]1[C@H](C)[C@@H](O[C@@H]2O[C@H](C)C[C@H](N(C)C)[C@H]2O)[C@](C)(OC)C[C@@H](C)/C(=N/OCc2ccccc2Cl)[C@H](C)[C@@H](O)[C@](C)(O)[C@@H](CC)OC(=O)[C@@H]1C	–	4 µg/mL (≈ 4.94 µM)	–	–	2 µg/mL (≈ 2.47 µM)	–	128 µg/mL (≈ 158 µM)	–	–	128 µg/mL (≈ 158 µM)	–
